Patent US20260207591A1, “CRYSTAL FORM OF FLUORINE-SUBSTITUTED INDAZOLE COMPOUND AND USE THEREOF” (SUNSHINE LAKE PHARMA CO., LTD., priority 2022, published 2026)

Tests used:
[1] = Crystal form conversion in solvents; format: physicochemical; conditions: solvents such as ethanol
[2] = Stability studies, overall conclusion; format: physicochemical
Experimental: Example 5 Stability Studies
(§1) Place an appropriate amount of the test sample in a flat weighing bottle, spreading it into a thin layer ≤5 mm thick. Store at 60° C.±2° C. for 30 days. Collect samples at 0, 5, 10, and 30 days for analysis according to the key stability test items. Observe any color changes and determine purity by HPLC.
(§2) Place an appropriate amount of the test sample from one batch in a flat weighing bottle, spreading it into a thin layer ≤5 mm thick. Store at 25° C. and 90%±5% relative humidity (RH) for 30 days. Collect samples at 0, 5, 10, and 30 days for analysis according to the key stability test items. Observe any color changes and determine purity by HPLC.
(§3) Expose the sample to visible light (4500 lx±500 lx) and UV light (energy ≥0.7 W·h/m^2) for 30 days. Collect samples at 0, 5, 10, 15, and 30 days for analysis according to the key stability test items. Observe any color changes and determine purity by HPLC.

[3] = Hygroscopicity test by dynamic vapor sorption (DVS); format: physicochemical; conditions: for Weight Gain at 60% RH (%) / Weight Gain at 80% RH (%) / Weight Gain at 95% RH (%): DVS, 25° C.; for resistance to deliquescence: high-humidity conditions
Experimental: The hygroscopicity of the present invention was determined using a DVS INT-Std dynamic vapor and gas sorption analyzer from Surface Measurement Systems Ltd. (UK) with the following parameters: humidity test range: 0%-95%, gas flow: 200 mL/min, temperature: 25° C., test points: one measurement point every 5% humidity increase.
An appropriate amount of the test sample was taken, and its hygroscopicity was measured using a dynamic vapor sorption (DVS) instrument. The classification criteria for hygroscopicity characteristics and moisture absorption weight gain (as per Appendix 9103 “Guidelines for Hygroscopicity Testing of Drugs” from the Chinese Pharmacopoeia 2020 Edition, test conditions: 25° C.±1° C., 80%±2% relative humidity (RH)) are described in Table 2 below: […]

[4] = Light-exposure test (stability study); format: physicochemical; conditions: visible 4500 lx±500 lx and UV, 30 days; for Purity (%): HPLC
Text: as §3

[5] = High-humidity test (stability study); format: physicochemical; conditions: for Purity (%): HPLC
Experimental: as §2

[6] = High-temperature test (stability study); format: physicochemical
Experimental: (1) High-Temperature Test:
as §1

[7] = Solubility (HPLC); format: physicochemical
Experimental: The solubility of the present invention was determined using an Agilent 1200 High Performance Liquid Chromatograph DAD/VWD detector with an Agilent XDB-C18 model (4.6×50 mm, 5 μm). Detection wavelength of 266 nm, flow rate of 1.0 mL/min, the column temperature of 35° C., mobile phase A: acetonitrile—0.01 M ammonium acetate=10:90 (V:V) analysis methods: acetonitrile-mobile phase A=70:30 (V:V), running time: 10 minutes.

[8] = Pharmacokinetics test in Beagle dogs, oral capsules; format: in vivo; conditions: dog, plasma, male Beagle dogs, 5 mg/kg
Experimental: Male Beagle dogs of 8-12 kg were divided into 3 groups, 3 dogs in each group, and capsules containing test samples were orally administered at a dose of 5 mg/kg, and blood was collected at time points of 0.25, 0.5, 1.0, 2.0, 4.0, 6.0, 8.0 and 24 h. Standard curve was plotted based on concentrations of the samples in a suitable range, the concentration of the test sample in the plasma sample was measured and quantified by AB SCIEX API4000-type LC-MS/MS at MRM mode. Pharmacokinetic parameters were calculated according to drug concentration-time curve using a noncompartmental method by WinNonLin 6.3 software.

[9] = 0 day (start of stability tests)
[10] = High-Humidity, 25° C., 90%±5% RH, 30 days

Row | SMILES | crystal form conversion in solvents [1] | stability under various storage conditions [2] | Weight Gain at 60% RH (%) [3] [%] | Weight Gain at 80% RH (%) [3] [%] | Weight Gain at 95% RH (%) [3] [%] | resistance to deliquescence [3] | Outward [4] | Purity (%) [4] [%] | Outward [5, 9] | Purity (%) [5, 9] [%] | Outward [5, 10] | Purity (%) [5, 10] [%] | polymorphic transformation under high-temperature conditions [6] | crystal structure stability (polymorphic transition) [2] | solubility (in words) [7] | AUC(0-t) [8] [ng·h/mL] | Cmax [8] [ng/mL] | Tmax [8] [h]
1 | COC(=O)Nc1c(N)nc(-c2nn(Cc3ccccc3F)c3c(F)cccc23)nc1N [Crystal Form I, methyl (4,6-diamino-2-(7-fluoro-1-(2-fluorobenzyl)-1H-indazol-3-yl)pyrimidin-5-yl)carbamate] | exhibit crystal form conversion | – | – | – | – | – | – | – | – | – | – | – | – | – | – | – | – | –
2 | COC(=O)Nc1c(N)nc(-c2nn(Cc3ccccc3F)c3c(F)cccc23)nc1N [Crystal Form III, methyl (4,6-diamino-2-(7-fluoro-1-(2-fluorobenzyl)-1H-indazol-3-yl)pyrimidin-5-yl)carbamate] | – | excellent stability | 0.09 | 0.14 | 0.25 | highly resistant to deliquescence | Pale yellow | 99.75 | Pale yellow | 99.76 | Pale yellow | 99.78 | – | – | – | – | – | –
3 | COC(=O)Nc1c(N)nc(-c2nn(Cc3ccccc3F)c3c(F)cccc23)nc1N [Crystal Form V, methyl (4,6-diamino-2-(7-fluoro-1-(2-fluorobenzyl)-1H-indazol-3-yl)pyrimidin-5-yl)carbamate] | exhibit crystal form conversion | – | – | – | – | – | Pale yellow | 99.36 | Off-white | 99.52 | Off-white | 99.51 | undergoes polymorphic transformation | – | – | – | – | –
4 | COC(=O)Nc1c(N)nc(-c2nn(Cc3ccccc3F)c3c(F)cccc23)nc1N [Crystal Form XI, methyl (4,6-diamino-2-(7-fluoro-1-(2-fluorobenzyl)-1H-indazol-3-yl)pyrimidin-5-yl)carbamate] | – | excellent stability | 0.15 | 0.20 | 0.26 | highly resistant to deliquescence | Off-white | 99.75 | Off-white | 99.77 | Off-white | 99.80 | – | less prone to polymorphic transition | good solubility | 12100 | 1140 | 10
